The text below walks through data of patent US10329302B2, “Bicyclic-fused heteroaryl or aryl compounds” (Pfizer Inc., priority 2014, dated 2019).

Structures are written as SMILES.

One assay deals with R848-induced TNFα production by human peripheral blood mononuclear cells (PBMCs). In words: R848 Induced TNFα in Human PBMC Assay. Conditions: Homo sapiens, PBMC, 3 h, read-out: R848-induced TNFa PBMC IC50 (nM). The format is cell-based.
Excerpt: This protocol is for R848-induced TNFα production by human peripheral blood mononuclear cells (PBMCs). […] The assay is used to assess cell-based potency of small molecule inhibitors of IRAK4 in the absence of serum.
The PBMCs in the interphase layer were collected and washed with PBS via centrifugation multiple times until the supernatant is clear. The purified PBMCs were re-suspended in RPMI (Roswell Park Memorial Institute) media (Sigma-Aldrich).
For the assay, a compound dilution plate containing a top concentration of 4 mM compound in DMSO was serially diluted 4-fold for 11 times. 250 nL of the compound dilution plate was spotted into a 384-well, flat bottom with lid, TC-treated, black with clear bottom, sterile, polystyrene plate (Corning Life Sciences).
10 μL of anti-TNFα antibody labeled with MSD SULFO-TAG at 50 μg/mL was added to each well and allowed to incubate overnight at 4° C.
As for `CCOc1cc2c(OC[C@@H]3C[C@@](F)(CF)C(=O)N3)ccnc2cc1C(N)=O` [Example 293, 6-ethoxy-4-{[(2S,4S)-4-fluoro-4-(fluoromethyl)-5-oxopyrrolidin-2-yl]methoxy}quinoline-7-carboxamide], the IC50 (in general, the point on the concentration scale where inhibition reaches its midpoint) is 462 nM.

For `COc1cc2c(OC[C@H]3NC(=O)[C@]4(C)C[C@H]34)nccc2cc1C(N)=O` [Example 297, 7-methoxy-1-{[(1S,2S,5R)-5-methyl-4-oxo-3-azabicyclo[3.1.0]hex-2-yl]methoxy}isoquinoline-6-carboxamide], the IC50 came out at 7120 nM.

For `COc1cc2c(OC[C@@H]3CCCC(=O)N3)nccc2cc1C(N)=O` [Example 302, 7-methoxy-1-{[(2S)-6-oxopiperidin-2-yl]methoxy}isoquinoline-6-carboxamide], the IC50 is 1280 nM.

For the molecule `COC[C@]1(F)C[C@@H](COc2nccc3cc(C(N)=O)c(OC)cc23)NC1=O` [Example 292, 1-{[(2S,4R)-4-fluoro-4-(methoxymethyl)-5-oxopyrrolidin-2-yl]methoxy}-7-methoxyisoquinoline-6-carboxamide], the IC50 amounted to 3140 nM.

In the case of `COc1cc2c(OC[C@@H]3C[C@@](F)(C4CCOCC4)C(=O)N3)nccc2cc1C(N)=O` [Example 284, 1-{[(2S,4R)-4-fluoro-5-oxo-4-(tetrahydro-2H-pyran-4-yl)pyrrolidin-2-yl]methoxy}-7-methoxyisoquinoline-6-carboxamide], the half-maximal inhibitory concentration (IC50) amounted to 320 nM.

For `CCC1C[C@@H](COc2nccc3cc(C(N)=O)c(OC(C)C)cc23)NC1=O` (single isomer, unassigned) [Example 113], the IC50 was determined as 53 nM.

For the molecule `CCOc1cc2c(OC[C@@H]3C[C@@](F)(CF)C(=O)N3)nccc2cc1C(N)=O` [Example 294, 7-ethoxy-1-{[(2S,4S)-4-fluoro-4-(fluoromethyl)-5-oxopyrrolidin-2-yl]methoxy}isoquinoline-6-carboxamide], the IC50 was determined as 24 nM.

`COc1cc2c(OC[C@H]3NC(=O)[C@H]4C3[C@H]4C)nccc2cc1C(N)=O` (stereo in doubt) [Example 285, 7-methoxy-1-(((1R,2S,5R,6R)-6-methyl-4-oxo-3-azabicyclo[3.1.0]hexan-2-yl)methoxy)isoquinoline-6-carboxamide]: the IC50 was determined as 1060 nM.

For the molecule `CC[C@]12C[C@H]1C(=O)N[C@@H]2COc1nccc2cc(C(N)=O)c(OC)cc12` [Example 299, 1-{[(1S,2S,5R)-1-ethyl-4-oxo-3-azabicyclo[3.1.0]hex-2-yl]methoxy}-7-methoxyisoquinoline-6-carboxamide], the IC50 came to 49 nM.

Turning to `COc1cc2c(OC[C@@H]3C[C@@H](C4(O)CCOCC4)C(=O)N3)nccc2cc1C(N)=O` [Example 289, 1-{[(2S,4S)-4-(4-hydroxytetrahydro-2H-pyran-4-yl)-5-oxopyrrolidin-2-yl]methoxy}-7-methoxyisoquinoline-6-carboxamide], the IC50 was 6270 nM.

Still in this assay, the particulars now being: human PBMC, absence of serum, 3 hours; read-out: R848-induced TNFa PBMC IC50.
Consider `COc1cc2c(OC[C@@H]3C[C@](F)(CC(F)(F)F)C(=O)N3)cccc2cc1C(N)=O` [Example 241, 5-{[(2S,4S)-4-fluoro-5-oxo-4-(2,2,2-trifluoroethyl)pyrrolidin-2-yl]methoxy}-3-methoxynaphthalene-2-carboxamide], for which the IC50 is 5760 nM.

`[2H]C([2H])([2H])Oc1cc2c(OC[C@H]3NC(=O)[C@@H](F)[C@H]3CC)nccc2cc1C(N)=O` [Example 338, 1-{[(2S,3S,4S)-3-ethyl-4-fluoro-5-oxopyrrolidin-2-yl]methoxy}-7-[(trideutero)methyloxy]isoquinoline-6-carboxamide]: the IC50 was found to be 3 nM.

Consider `CC[C@@H]1[C@H](F)C(=O)NC1(O)COc1nccc2cc(C(N)=O)c(OC)cc12` (stereo partly drawn) [Example 197, 1-{[(3S,4S)-3-ethyl-4-fluoro-2-hydroxy-5-oxopyrrolidin-2-yl]methoxy}-7-methoxyisoquinoline-6-carboxamide], for which the IC50 was 71 nM.

A further assay deals with human IRAK4 FL (Full Length) (Homo sapiens (Human), UniProt Q9NWZ3). Briefly: IRAK4 Enzymatic DELFIA Assay, Protocol A. The format is biochemical. The note with it: human IRAK4 FL, 0.6 mM ATP (KM); read-out: IRAK4 DELFIA Protocol A IC50.
human IRAK4 FL (Full Length), sequence (Q9NWZ3 whole entry): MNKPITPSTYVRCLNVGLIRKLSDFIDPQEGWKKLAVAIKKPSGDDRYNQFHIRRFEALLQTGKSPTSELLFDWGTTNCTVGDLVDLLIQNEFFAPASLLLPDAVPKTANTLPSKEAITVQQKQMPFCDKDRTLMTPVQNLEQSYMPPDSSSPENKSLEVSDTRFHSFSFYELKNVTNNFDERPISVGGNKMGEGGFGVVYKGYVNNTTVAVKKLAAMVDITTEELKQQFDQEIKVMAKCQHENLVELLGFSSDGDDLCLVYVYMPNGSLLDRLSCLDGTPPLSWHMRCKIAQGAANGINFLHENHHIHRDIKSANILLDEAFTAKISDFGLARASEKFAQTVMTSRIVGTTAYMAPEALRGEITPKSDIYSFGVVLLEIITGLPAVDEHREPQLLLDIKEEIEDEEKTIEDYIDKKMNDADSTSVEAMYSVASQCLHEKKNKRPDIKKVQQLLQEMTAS
Turning to `NC(=O)c1cc2ccnc(OC[C@@H]3CCC(=O)N3)c2cc1OC(F)F` [Example 129, 7-(difluoromethoxy)-1-{[(2S)-5-oxopyrrolidin-2-yl]methoxy}isoquinoline-6-carboxamide], the IC50 was 231 nM.

Turning to `NC(=O)c1cc2ccnc(OC[C@@H]3CCC(=O)N3)c2cc1OC1CCC1` [Example 120, 7-(cyclobutyloxy)-1-{[(2S)-5-oxopyrrolidin-2-yl]methoxy}isoquinoline-6-carboxamide], the concentration for half-maximal inhibition (IC50) is 1140 nM.

As for `COc1cc2c(OC[C@H]3NC(=O)[C@H](F)[C@H]3CF)nccc2cc1C(N)=O` [Example 375, 1-{[(2S,3R,4R)-4-fluoro-3-(fluoromethyl)-5-oxopyrrolidin-2-yl]methoxy}-7-methoxyisoquinoline-6-carboxamide], the IC50 stood at 0.3 nM.

As for `COc1cc2c(OC[C@@H]3C[C@](F)(CF)C(=O)N3)nccc2cc1C(N)=O` [Example 261, 1-{[(2S,4R)-4-fluoro-4-(fluoromethyl)-5-oxopyrrolidin-2-yl]methoxy}-7-methoxyisoquinoline-6-carboxamide], the IC50 is 671 nM.

As for `CC(C)Oc1cc2c(OCC3CCS(=O)(=O)N3)nccc2cc1C(N)=O` (stereo not shown) [Example 143, 1-[(1,1-dioxido-1,2-thiazolidin-3-yl)methoxy]-7-(propan-2-yloxy)isoquinoline-6-carboxamide], the IC50 stood at 2540 nM.

As to `CC(C)Oc1cc2c(OC[C@]3(CO)CCC(=O)N3)nccc2cc1C(N)=O` [Example 154, 1-{[(2R)-2-(hydroxymethyl)-5-oxopyrrolidin-2-yl]methoxy}-7-(propan-2-yloxy)isoquinoline-6-carboxamide], the IC50 stood at 17 nM.

Consider `CC(C)Oc1cc2c(OC[C@@H]3CCC(=O)N3)ncc(C#N)c2cc1C(N)=O` [Example 190, 4-cyano-1-{[(2S)-5-oxopyrrolidin-2-yl]methoxy}-7-(propan-2-yloxy)isoquinoline-6-carboxamide], for which the IC50 is 294 nM.

Regarding `CC(C)Oc1cc2c(OCC3CN(C(=O)CC#N)C3)ccnc2cc1C(N)=O` [Example 60, 4-{[1-(cyanoacetyl)azetidin-3-yl]methoxy}-6-(propan-2-yloxy)quinoline-7-carboxamide], the IC50 was determined as 8.9 nM.

In the case of `CC(C)Oc1cc2c(OC[C@@H]3CCC(=O)N3)nccc2cc1C(=O)O` [Example 169, 1-{[(2S)-5-oxopyrrolidin-2-yl]methoxy}-7-(propan-2-yloxy)isoquinoline-6-carboxylic acid], the half-inhibitory concentration (IC50) worked out at 890 nM.

In the case of `CC(C)Oc1cc2c(OC[C@H]3NC(=O)C[C@@H]3C(F)(F)F)nccc2cc1C(N)=O` [Example 155, 1-{[(2S,3S)-5-oxo-3-(trifluoromethyl)pyrrolidin-2-yl]methoxy}-7-(propan-2-yloxy)isoquinoline-6-carboxamide], the IC50 came out at 267 nM.

Regarding `CC(C)Oc1cc2c(OC[C@]34CCC[C@H]3CNC4)nccc2cc1C(N)=O` [Example 123, 1-[(3aR,6aR)-hexahydrocyclopenta[c]pyrrol-3a(1H)-ylmethoxy]-7-(propan-2-yloxy)isoquinoline-6-carboxamide], the IC50 came to 747 nM.

As to `NC(=O)c1cc2ccnc(OC[C@@H]3CCC(=O)N3)c2cc1OC1COC1` [Example 199, 7-(oxetan-3-yloxy)-1-{[(2S)-5-oxopyrrolidin-2-yl]methoxy}isoquinoline-6-carboxamide], the IC50 was 2900 nM.

In the case of `CC(C)Oc1cc2c(O[C@H](C)[C@@H]3CCC(=O)N3)nccc2cc1C(N)=O` [Example 156, 1-{(1R)-1-[(2S)-5-oxopyrrolidin-2-yl]ethoxy}-7-(propan-2-yloxy)isoquinoline-6-carboxamide], the IC50 was 4100 nM.

Consider `COc1cc2c(OC[C@@H]3C[C@H](CC#N)C(=O)N3)nccc2cc1C(N)=O` [Example 224, 1-{[(2S,4R)-4-(cyanomethyl)-5-oxopyrrolidin-2-yl]methoxy}-7-methoxyisoquinoline-6-carboxamide], for which the IC50 was determined as 1170 nM.

Consider `CC(C)Oc1cc2c(OC[C@H]3NC(=O)C[C@@H]3CO)nccc2cc1C(N)=O` [Example 212, 1-{[(2S,3S)-3-(hydroxymethyl)-5-oxopyrrolidin-2-yl]methoxy}-7-(propan-2-yloxy)isoquinoline-6-carboxamide], for which the IC50 turned out to be 150 nM.

`CC(C)Oc1cc2c(O[C@@H](C)[C@@H]3CCC(=O)N3)nccc2cc1C(N)=O` [Example 157, 1-{(1S)-1-[(2S)-5-oxopyrrolidin-2-yl]ethoxy}-7-(propan-2-yloxy)isoquinoline-6-carboxamide]: the IC50 is 152 nM.

For `COc1cc2c(O[C@@H](C)[C@@H]3CCC(=O)N3)nccc2cc1C(N)=O` [Example 354, 7-methoxy-1-{(1S)-1-[(2S)-5-oxopyrrolidin-2-yl]ethoxy}isoquinoline-6-carboxamide], the IC50 worked out at 2890 nM.

For the molecule `COc1cc2c(OC[C@H]3NC(=O)[C@@](F)(CO)[C@H]3C)nccc2cc1C(N)=O` [Example 210, 1-{[(2S,3S,4S)-4-fluoro-4-(hydroxymethyl)-3-methyl-5-oxopyrrolidin-2-yl]methoxy}-7-methoxyisoquinoline-6-carboxamide], the concentration for half-maximal inhibition (IC50) came out at 3470 nM.

On to `COc1cc2c(OC[C@@H]3C[C@H](CC(F)(F)F)C(=O)N3)nccc2cc1C(N)=O` [Example 270, 7-methoxy-1-{[(2S,4R)-5-oxo-4-(2,2,2-trifluoroethyl)pyrrolidin-2-yl]methoxy}isoquinoline-6-carboxamide], for which the IC50 amounted to 290 nM.

For `CC(C)Oc1cc2c(OC[C@@H]3C[C@@H](C4(O)COC4)C(=O)N3)nccc2cc1C(N)=O` [Example 193, 1-{[(2S,4S)-4-(3-hydroxyoxetan-3-yl)-5-oxopyrrolidin-2-yl]methoxy}-7-(propan-2-yloxy)isoquinoline-6-carboxamide], the IC50 came to 238 nM.

On to `COc1cc2c(OC[C@H]3CN(C)C(=O)O3)nccc2cc1C(N)=O` [Example 239, 7-methoxy-1-{[(5R)-3-methyl-2-oxo-1,3-oxazolidin-5-yl]methoxy}isoquinoline-6-carboxamide], for which the IC50 was 1180 nM.
